This passage reports AC50, EC50 and IC50 results from ChEMBL document CHEMBL1201862, “PubChem BioAssay data set” (2004).

Active and inactive are the calls of the source. Unless noted, no cut-off for these calls is given here.

In assay [1] the target is T1, Replicative DNA helicase DnaB (Mycobacterium tuberculosis, UniProt P9WMR3).
T1 sequence (P9WMR3 whole entry): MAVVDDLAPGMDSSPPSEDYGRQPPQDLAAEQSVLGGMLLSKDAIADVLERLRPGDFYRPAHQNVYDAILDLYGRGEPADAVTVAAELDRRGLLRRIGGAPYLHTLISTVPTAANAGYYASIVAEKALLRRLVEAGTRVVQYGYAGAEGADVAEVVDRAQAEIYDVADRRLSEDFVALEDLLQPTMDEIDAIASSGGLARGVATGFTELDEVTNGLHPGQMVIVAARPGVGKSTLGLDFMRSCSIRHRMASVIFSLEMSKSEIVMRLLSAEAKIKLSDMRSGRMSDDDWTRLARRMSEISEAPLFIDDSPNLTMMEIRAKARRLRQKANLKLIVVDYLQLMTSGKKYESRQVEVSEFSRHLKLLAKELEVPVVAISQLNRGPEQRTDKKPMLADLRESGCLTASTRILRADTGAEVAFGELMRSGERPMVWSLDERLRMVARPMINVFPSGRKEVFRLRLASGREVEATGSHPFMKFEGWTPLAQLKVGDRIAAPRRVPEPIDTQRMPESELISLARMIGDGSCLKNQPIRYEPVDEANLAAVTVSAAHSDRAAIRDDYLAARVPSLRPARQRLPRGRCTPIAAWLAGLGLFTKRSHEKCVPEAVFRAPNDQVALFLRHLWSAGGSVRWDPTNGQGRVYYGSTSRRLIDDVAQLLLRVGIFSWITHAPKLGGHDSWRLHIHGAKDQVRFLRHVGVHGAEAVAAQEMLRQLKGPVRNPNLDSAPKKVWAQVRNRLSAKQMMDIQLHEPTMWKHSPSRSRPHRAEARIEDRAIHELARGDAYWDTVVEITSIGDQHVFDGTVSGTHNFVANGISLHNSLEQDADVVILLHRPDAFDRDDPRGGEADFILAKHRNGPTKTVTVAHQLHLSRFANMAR
The assay is described as follows: DnaB intein splicing inhibitors, dose response, biochemical, cell-free fluorescence (AID 449749). It counts as functional.

Another assay deals with T2, Protein RecA (Mycobacterium tuberculosis, UniProt P9WHJ3).
T2 sequence (P9WHJ3 whole entry): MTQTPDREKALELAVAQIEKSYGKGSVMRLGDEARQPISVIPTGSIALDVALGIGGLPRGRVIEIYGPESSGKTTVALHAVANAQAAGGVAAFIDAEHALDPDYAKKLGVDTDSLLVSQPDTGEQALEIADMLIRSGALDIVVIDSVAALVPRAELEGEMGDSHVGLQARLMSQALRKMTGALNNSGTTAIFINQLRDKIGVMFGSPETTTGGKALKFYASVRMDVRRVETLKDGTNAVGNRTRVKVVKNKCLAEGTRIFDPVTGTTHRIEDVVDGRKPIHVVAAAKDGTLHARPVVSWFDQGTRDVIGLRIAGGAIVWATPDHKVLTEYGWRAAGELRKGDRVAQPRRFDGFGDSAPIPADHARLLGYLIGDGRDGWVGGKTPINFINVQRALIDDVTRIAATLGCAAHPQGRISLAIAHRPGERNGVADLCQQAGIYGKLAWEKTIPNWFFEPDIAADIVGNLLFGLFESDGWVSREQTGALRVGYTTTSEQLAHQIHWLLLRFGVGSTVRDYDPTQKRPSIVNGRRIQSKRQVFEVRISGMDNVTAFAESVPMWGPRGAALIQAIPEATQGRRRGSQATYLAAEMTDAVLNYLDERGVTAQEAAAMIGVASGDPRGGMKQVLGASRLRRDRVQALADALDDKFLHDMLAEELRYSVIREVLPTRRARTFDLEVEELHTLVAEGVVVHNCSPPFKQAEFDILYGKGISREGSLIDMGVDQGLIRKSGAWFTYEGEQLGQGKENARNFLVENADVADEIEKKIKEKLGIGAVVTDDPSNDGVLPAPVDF
The assay can be described thus: Fluorescence Cell-Free Homogeneous Dose Retest to Identify Inhibitors of RecA-Intein Splicing Activity. [Related pubchem assays (depositor defined):AID2097, AID2223, AID489010, AID492950]. Type of assay: functional.

Assay [2] has as its target T3, Apoptotic protease-activating factor 1 (Homo sapiens, UniProt O14727).
T3 sequence (O14727 whole entry): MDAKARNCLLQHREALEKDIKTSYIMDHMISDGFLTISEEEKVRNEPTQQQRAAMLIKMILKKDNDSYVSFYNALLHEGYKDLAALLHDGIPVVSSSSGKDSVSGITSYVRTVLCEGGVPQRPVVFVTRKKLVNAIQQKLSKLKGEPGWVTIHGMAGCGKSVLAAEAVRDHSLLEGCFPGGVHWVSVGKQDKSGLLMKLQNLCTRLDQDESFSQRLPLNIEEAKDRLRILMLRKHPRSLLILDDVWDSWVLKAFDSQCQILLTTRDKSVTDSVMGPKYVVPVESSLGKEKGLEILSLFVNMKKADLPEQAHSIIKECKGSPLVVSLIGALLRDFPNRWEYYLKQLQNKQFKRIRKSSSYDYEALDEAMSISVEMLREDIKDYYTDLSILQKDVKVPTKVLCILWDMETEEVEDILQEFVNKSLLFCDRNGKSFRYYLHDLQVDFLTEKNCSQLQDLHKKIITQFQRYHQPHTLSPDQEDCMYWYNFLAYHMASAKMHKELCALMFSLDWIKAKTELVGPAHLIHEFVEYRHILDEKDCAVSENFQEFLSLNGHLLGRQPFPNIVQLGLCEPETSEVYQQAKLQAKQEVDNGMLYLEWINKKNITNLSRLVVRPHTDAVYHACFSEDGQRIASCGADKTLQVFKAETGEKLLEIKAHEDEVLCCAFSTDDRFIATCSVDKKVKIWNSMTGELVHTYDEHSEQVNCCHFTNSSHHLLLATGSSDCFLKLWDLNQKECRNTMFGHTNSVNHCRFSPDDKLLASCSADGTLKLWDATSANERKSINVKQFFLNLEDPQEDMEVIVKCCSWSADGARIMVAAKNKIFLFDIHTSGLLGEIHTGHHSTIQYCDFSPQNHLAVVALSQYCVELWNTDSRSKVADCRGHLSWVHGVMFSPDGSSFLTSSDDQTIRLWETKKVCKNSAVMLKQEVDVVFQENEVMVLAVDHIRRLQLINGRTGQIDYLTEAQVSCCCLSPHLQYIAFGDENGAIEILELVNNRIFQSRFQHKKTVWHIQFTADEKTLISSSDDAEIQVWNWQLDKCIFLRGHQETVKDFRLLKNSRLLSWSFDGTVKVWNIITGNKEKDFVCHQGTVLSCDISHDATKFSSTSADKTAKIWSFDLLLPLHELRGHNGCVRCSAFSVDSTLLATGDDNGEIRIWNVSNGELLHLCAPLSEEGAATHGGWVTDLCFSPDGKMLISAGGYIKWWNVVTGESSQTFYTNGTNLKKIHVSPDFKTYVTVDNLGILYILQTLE
It counts as functional.

The target of assay [3] is Arf-GAP with SH3 domain, ANK repeat and PH domain-containing protein 1 (Homo sapiens, UniProt Q9ULH1). Type of assay: functional.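 Note: biochemical fluorescence polarization dose–response screen measuring inhibition of ASAP1; ASAP1 GAP domain stimulating GTP hydrolysis by truncated human ARF1.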
Chain of Arf-GAP with SH3 domain, ANK repeat and PH domain-containing protein 1 (Q9ULH1 whole entry, the tested form may be a part): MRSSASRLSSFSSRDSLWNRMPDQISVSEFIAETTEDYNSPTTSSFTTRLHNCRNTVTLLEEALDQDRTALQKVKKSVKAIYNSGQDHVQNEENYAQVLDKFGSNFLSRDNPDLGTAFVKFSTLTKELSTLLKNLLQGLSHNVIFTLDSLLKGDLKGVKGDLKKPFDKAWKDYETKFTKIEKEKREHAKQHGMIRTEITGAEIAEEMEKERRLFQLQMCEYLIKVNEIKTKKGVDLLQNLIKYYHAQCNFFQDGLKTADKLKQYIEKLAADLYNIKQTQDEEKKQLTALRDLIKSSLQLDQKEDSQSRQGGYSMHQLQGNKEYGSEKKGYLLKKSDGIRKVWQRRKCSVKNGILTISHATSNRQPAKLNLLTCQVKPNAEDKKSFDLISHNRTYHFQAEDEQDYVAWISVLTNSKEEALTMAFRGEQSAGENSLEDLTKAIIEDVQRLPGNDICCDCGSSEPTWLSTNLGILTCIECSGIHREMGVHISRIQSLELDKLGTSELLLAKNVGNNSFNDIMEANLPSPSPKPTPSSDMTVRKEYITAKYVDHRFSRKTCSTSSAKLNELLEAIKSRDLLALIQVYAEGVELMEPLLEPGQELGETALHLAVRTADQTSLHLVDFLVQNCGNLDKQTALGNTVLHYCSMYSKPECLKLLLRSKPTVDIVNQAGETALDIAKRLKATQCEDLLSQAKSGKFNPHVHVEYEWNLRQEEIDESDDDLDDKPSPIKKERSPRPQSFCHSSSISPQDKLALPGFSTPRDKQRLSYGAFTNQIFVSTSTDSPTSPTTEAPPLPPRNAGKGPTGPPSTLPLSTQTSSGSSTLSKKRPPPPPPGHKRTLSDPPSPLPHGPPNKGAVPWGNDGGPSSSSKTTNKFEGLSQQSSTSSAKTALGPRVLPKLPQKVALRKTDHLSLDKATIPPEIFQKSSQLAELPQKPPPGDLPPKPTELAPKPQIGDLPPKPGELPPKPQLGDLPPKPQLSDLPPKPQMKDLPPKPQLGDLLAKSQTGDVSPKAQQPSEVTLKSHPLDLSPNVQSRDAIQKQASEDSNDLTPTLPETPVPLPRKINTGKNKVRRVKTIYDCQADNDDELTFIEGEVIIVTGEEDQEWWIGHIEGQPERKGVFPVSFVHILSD
In assay [4] the target is T4, Tyrosyl-DNA phosphodiesterase 2 (Homo sapiens, UniProt O95551).
T4 sequence (O95551 whole entry): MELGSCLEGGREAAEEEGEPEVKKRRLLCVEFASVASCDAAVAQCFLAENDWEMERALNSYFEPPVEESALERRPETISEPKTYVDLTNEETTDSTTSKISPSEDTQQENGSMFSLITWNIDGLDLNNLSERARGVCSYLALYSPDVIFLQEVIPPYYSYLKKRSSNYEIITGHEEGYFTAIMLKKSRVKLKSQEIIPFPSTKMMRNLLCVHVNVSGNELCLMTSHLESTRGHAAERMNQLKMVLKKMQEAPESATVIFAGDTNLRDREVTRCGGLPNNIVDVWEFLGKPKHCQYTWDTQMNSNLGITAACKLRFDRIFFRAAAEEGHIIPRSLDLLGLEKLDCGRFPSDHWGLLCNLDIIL
The assay can be described thus: potency against TDP2 phosphodiesterase activity – biochemical, epi absorbance, IC50, dose response (AID 743297).

Assay [5] in a line: intracellular Trypanosoma cruzi inhibitors in host cells – cell-based, plate reader, cherry-pick samples, set 3, dose response (AID 651818).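 Note: compounds incubated with infected cells for about four days.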 It counts as functional.
Assay [6] in a line: Inhibition of Plasmodium falciparum NF54 Measured in Cell-Based System Using Plate Reader - 2138-11_Inhibitor_Dose_CherryPick_Activity. It counts as functional.
The nature of assay [7]: antileishmanial activity on axenic amastigotes – plate reader, cherry pick, dose response (AID 651891). It counts as functional, cell-based. To be noted: Leishmania donovani.
Assay [8] is described as follows: African trypanosome bloodstream form growth inhibition – STIB900 strain, plate reader, cherry pick, dose response (AID 651893). It counts as functional, cell-based, Trypanosoma brucei rhodesiense. To be noted: Trypanosoma brucei.
The nature of assay [9]: Inhibition of T. cruzi Tulahuen strain amastigotes in L-6 muscle cells Measured in Cell-Based and Microorganism Combination System Using Plate Reader - 2138-03_Inhibitor_Dose_CherryPick_Activity. Type of assay: functional. To be noted: Rattus norvegicus, L6.
Assay [10] can be described thus: L6 myocyte viability loss – cell-based, plate reader, cherry-pick, cytotoxicity control, dose response (AID 651896). It counts as functional.

Usually AC50 stands for the concentration at which the activity in the assay is half-maximal. The term EC50 denotes the concentration that produces a half-maximal response. As a reminder, the IC50 is the midpoint of a concentration-inhibition curve. On to `COc1ccccc1Nc1cc2cc(Br)ccc2c(=O)[nH]1`, for which the AC50 in assay [1] is > 120 µM (inactive). Further, at Protein RecA, the half-maximal effective concentration (EC50) is 23.3 µM (active). For the same molecule, the values for the half-maximal inhibitory concentration (IC50) in assay [2], in assay [3] and in assay [4] were 1.51 µM (active), 165 µM (inactive) and 10.7 µM (inactive), respectively.
Consider `COc1ccc(CN(C)C[C@@H]2Oc3c(NC(=O)c4ccncc4)cccc3C(=O)N([C@H](C)CO)C[C@H]2C)cc1`, for which the concentration at half-maximal activity (AC50) in assay [5] was 0.361 µM (active). For the same molecule, the IC50 in assay [6] is 5.91 µM (inactive); in assay [7] it was > 100 µM (inactive); in [8], 2.62 µM (inactive); in assay [9], 5.91 µM (inactive); in [10], > 100 µM (inactive).
